The assay in a line: The compound was tested for the inhibitory activity of FK506 binding protein. Set-up: species or system Homo sapiens.

Non-standard residues stand in square brackets, D forms with d. Residues, ends and D or L forms follow the SMILES beside them. *: point of attachment. Pip = O=C(O)[C@@H]1CCCCN1; Cbz = O=C(OCc1ccccc1)*

What is called IC50 is the concentration that gives 50% inhibition. High values mean a need for much substance, low ones inhibition by little substance.

As for `COc1cccc(C(=O)CN2CCCC[C@H]2C(=O)N[C@@H](CCc2ccccc2)C(=O)OC(C)C)c1`, the IC50 is more than 100 µM. For `CC(C)[C@H](NC(=O)[C@H](Cc1ccccc1)NC(=O)[C@@H]1CCCCN1CC(=O)c1ccc2ccccc2c1)C(=O)N[C@@H](Cc1ccccc1)C(=O)N[C@H](C)c1ccccc1` the value was 65 µM; for `C[C@@H](/C=C/c1ccc(C(=O)CN2CCCC2C(=O)NC(Cc2ccccc2)C(=O)OC(C)(C)C)s1)CO[Si](C)(C)C(C)(C)C` (stereo not given in full), 60 µM.

`CC(C)(C)OC(=O)N[C@@H](CC1CCCCC1)C(=O)CN1CCCC1C(=O)NC(Cc1ccccc1)C(=O)OC(C)(C)C` (stereo not given in full) showed an IC50 of more than 100 µM.

For `CC(C)[C@H](NC(=O)[C@H](Cc1ccccc1)NC(=O)[C@@H]1CCCCN1CC(=O)c1ccc2ccccc2c1)C(=O)N[C@@H](Cc1ccccc1)C(=O)OC(C)(C)C`, the IC50 is 13 µM. `COc1cccc(C(=O)CN2CCCC[C@H]2C(=O)N[C@@H](CC2CCCCC2)C(=O)OC(C)(C)C)c1` displayed an IC50 of 91 µM. Next, `COc1cccc(C(=O)CN2CCCC[C@H]2C(=O)N[C@H](C(=O)OC(C)(C)C)c2cccs2)c1`: 23 µM; `COC(=O)[C@H](Cc1ccccc1)NC(=O)[C@@H](NC(=O)[C@H](Cc1ccccc1)NC(=O)[C@@H]1CCCCN1CC(=O)c1ccc2ccccc2c1)C(C)C`: 0.3 µM; `COc1cccc(C(=O)CN2CCCC[C@H]2C(=O)N[C@H](Cc2ccccc2)C(=O)OC(C)(C)C)c1`: 81 µM. `C=CCCC(NC(=O)[C@H](Cc1ccccc1)NC(=O)[C@@H]1CCCCN1CC(=O)c1cccc(OC)c1)C(=O)OC(C)(C)C` (stereo not given in full) displayed an IC50 of 12 µM. The compound `COc1cccc(C(=O)CN2CCCC[C@H]2C(=O)N[C@@H](CCC2CCCCC2)C(=O)OC(C)C)c1` came in with an IC50 of more than 100 µM.

Compound `CCC(C)[C@H](NC(=O)[C@@H]1CCCCN1CC(=O)c1cccc(OC)c1)C(=O)OC(C)(C)C` (stereo not given in full) returned an IC50 of 8 µM.

`COc1cccc(C(=O)CN2CCCC[C@H]2C(=O)N[C@@H](Cc2ccccc2)C(=O)N[C@H](/C=C/C2CCCC(=O)O2)C(C)C)c1` (stereo not given in full) displayed an IC50 of 42 µM. Regarding `COc1cccc(C(=O)CN2CCCC2C(=O)NC(Cc2ccccc2)C(=O)OC(C)(C)C)c1` (stereo not given), the IC50 was 12 µM.

`COc1cccc(C(=O)CN2CCCC[C@H]2C(=O)N[C@@H](Cc2ccccc2)C(=O)N[C@H](/C=C/COC(=O)C(F)(F)F)C(C)C)c1` yielded an IC50 of 1 µM. Turning to `C[C@@H](/C=C/c1ccc(C(=O)C(=O)N2CCCC2C(=O)NC(Cc2ccccc2)C(=O)OC(C)(C)C)s1)CO` (stereo not given in full), the IC50 came to 120 µM. For `COc1cccc(C(=O)CN2CCCC[C@H]2C(=O)N[C@@H](Cc2ccccc2)C(=O)N[C@H](C(=O)N[C@@H](Cc2ccccc2)C(=O)N[C@@H](C)c2ccccc2)C(C)C)c1` the value was 59 µM; for `COc1cccc(C(=O)CN2CCCC[C@H]2C(=O)N[C@@H](Cc2ccccc2)C(=O)N[C@H](/C=C/I)C(C)C)c1`, 2 µM; for `COc1cccc(C(=O)CN2CCCC[C@H]2C(=O)N[C@@H](Cc2ccccc2)C(=O)NC(Cc2ccccc2)C(=O)OC(C)(C)C)c1` (stereo not given in full), 40 µM.

In the case of `CCC(C)C(NC(=O)[C@H](Cc1ccccc1)NC(=O)[C@@H]1CCCCN1CC(=O)c1cccc(OC)c1)C(=O)OC(C)(C)C` (stereo not given in full), the IC50 is 6 µM.

As for `COc1cccc(C(=O)CN2CCCC[C@H]2C(=O)N[C@@H](Cc2ccccc2)C(=O)N[C@H](C(=O)N[C@@H](Cc2ccccc2)C(=O)N[C@H](C)c2ccccc2)C(C)C)c1`, the IC50 was determined as 85 µM. As for `COc1cccc(C(=O)CN2CCCC[C@H]2C(=O)N[C@@H](Cc2ccccc2)C(=O)NC(C(=O)OC(C)(C)C)C(C)C)c1` (stereo not given in full), the IC50 is 3 µM.

In turn, `COc1cccc(C(=O)CN2CCCC[C@H]2C(=O)N[C@@H](Cc2ccccc2)C(=O)N[C@H](/C=C/COC(=O)c2ccccc2)C(C)C)c1` returned an IC50 of 62 µM. Next, `C[C@@H](/C=C/c1ccc(C(=O)C(=O)N2CCCC[C@H]2C(=O)NC(Cc2ccccc2)C(=O)OC(C)(C)C)s1)CO` (stereo not given in full): 9 µM. Next, `COC1CCCC(C(=O)CN2CCCC2C(=O)NC(Cc2ccccc2)C(=O)OC(C)(C)C)C1` (stereo not given): more than 100 µM.

The compound `COc1cccc(C(=O)CN2CCCC[C@H]2C(=O)N[C@@H](Cc2ccc([N+](=O)[O-])cc2)C(=O)OC(C)(C)C)c1` yielded an IC50 of 27 µM. As to `COc1cccc(C(=O)CN2CCCC[C@H]2C(=O)N[C@@H](Cc2ccccc2)C(=O)N[C@H](C(=O)N[C@@H](Cc2ccccc2)C(=O)O[C@H](C)c2ccccc2)C(C)C)c1`, the IC50 turned out to be 23 µM. `COc1cccc(C(=O)CN2CCCC[C@H]2C(=O)N[C@@H](Cc2ccccc2)C(=O)N[C@H](C(=O)N[C@@H](Cc2ccccc2)C(=O)O[C@@H](C)c2ccccc2)C(C)C)c1` had an IC50 of 56 µM. For `CC(C)(C)OC(=O)C(CC1CCCCC1)NC(=O)[C@H](Cc1ccccc1)NC(=O)[C@@H]1CCCCN1CC(=O)c1ccc2ccccc2c1` (stereo not given in full) the value was 35 µM; for `COc1cccc(C(=O)CN2CCCC[C@H]2C(=O)N[C@@H](Cc2ccccc2)C(=O)N[C@H](C(=O)N[C@@H](Cc2ccccc2)C(=O)OC(C)(C)C)C(C)C)c1`, 20 µM.

Consider `C=CCOC/C=C/[C@@H](NC(=O)[C@H](Cc1ccccc1)NC(=O)[C@@H]1CCCCN1CC(=O)c1cccc(OC)c1)C(C)C`, for which the IC50 worked out at 3 µM.

`CC(C)[C@H](NC(=O)[C@H](Cc1ccccc1)NC(=O)[C@@H]1CCCCN1CC(=O)c1ccc2ccccc2c1)C(=O)N[C@@H](Cc1ccccc1)C(=O)N[C@H](C)c1cccc2ccccc12` had an IC50 of 75 µM. The compound `C[C@@H](/C=C/c1ccc(C(=O)C(=O)N2CCCC2C(=O)OC(C)(C)C)s1)CO[Si](C)(C)C(C)(C)C` (stereo not given in full) gave an IC50 of more than 100 µM.

In the case of `C[C@@H](/C=C/c1ccc(C(=O)C(=O)N2CCCC2C(=O)NC(Cc2ccccc2)C(=O)OC(C)(C)C)s1)CO[Si](C)(C)C(C)(C)C` (stereo not given in full), the IC50 was more than 100 µM. For `CC(=O)OC/C=C/[C@@H](NC(=O)[C@H](Cc1ccccc1)NC(=O)[C@@H]1CCCCN1CC(=O)c1ccc2ccccc2c1)C(C)C` the value was 18 µM; for `COc1cccc(C(=O)CN2CCCC[C@H]2C(=O)N[C@@H](Cc2ccccc2)C(=O)N[C@H](/C=C/COC(C)=O)C(C)C)c1`, 2 µM. For `COc1cccc(C(=O)CN2CCCC[C@H]2C(=O)N[C@H](C(=O)OC(C)(C)C)c2ccsc2)c1` the value was 22 µM; for `COc1cccc(C(=O)CN2CCCC[C@H]2C(=O)N[C@@H](Cc2ccccc2)C(=O)N[C@H](/C=C/[C@@H](C)CC(C)=O)C(C)C)c1`, 10 µM. For `COc1cccc(C(=O)CN2CCCC[C@H]2C(=O)N[C@@H](Cc2ccccc2)C(=O)NC(CC2CCCCC2)C(=O)OC(C)(C)C)c1` (stereo not given in full) the value was 70 µM; for `CC(C)[C@@H](/C=C/C(=O)N[C@@H](C)c1ccccc1)NC(=O)[C@H](Cc1ccccc1)NC(=O)[C@@H]1CCCCN1CC(=O)c1ccc2ccccc2c1`, 35 µM. On to `COc1cccc(C(=O)CN2CCCC[C@H]2C(=O)N[C@@H](Cc2ccccc2)C(=O)N[C@H](/C=C/C2CCC(=O)C2)C(C)C)c1` (stereo not given in full), for which the IC50 was found to be 11 µM.

The compound `COc1cccc(C(=O)CN2CCCC[C@H]2C(=O)N[C@@H](Cc2ccccc2)C(=O)NC(CC(C)C)C(=O)OC(C)(C)C)c1` (stereo not given in full) showed an IC50 of 3 µM. `COc1cccc(C(=O)CN2CCCC[C@H]2C(=O)N[C@@H](Cc2ccccc2)C(=O)N[C@H](/C=C/C(=O)N[C@@H](C)c2ccccc2)C(C)C)c1` showed an IC50 of 40 µM. For `CC(C)C(NC(=O)[C@H](Cc1ccccc1)NC(=O)[C@@H]1CCCCN1CC(=O)c1ccc2ccccc2c1)C(=O)OC(C)(C)C` (stereo not given in full) the value was 1 µM; for `COc1cccc(C(=O)CN2CCCC[C@H]2C(=O)N[C@@H](Cc2ccccc2)C(=O)OC(C)(C)C)c1`, 3 µM. Consider `C[C@@H](/C=C/c1ccc(C(=O)C(=O)N2CCCC2C(=O)OC(C)(C)C)s1)CO` (stereo not given in full), for which the IC50 was more than 100 µM. The compound `COc1cccc(C(=O)CN2CCCC[C@H]2C(=O)N[C@@H](Cc2ccccc2)C(=O)N[C@H](C(=O)N[C@@H](Cc2ccccc2)C(=O)N[C@H](C)c2cccc3ccccc23)C(C)C)c1` returned an IC50 of 30 µM. `COc1cccc(C(=O)CN2CCCC[C@H]2C(=O)N[C@@H](Cc2ccccc2)C(=O)NC(CCCCNC(=O)OCc2ccccc2)C(=O)OCc2ccccc2)c1` (stereo not given in full) gave an IC50 of more than 100 µM. Next, `COc1cccc(C(=O)CN2CCCC[C@H]2C(=O)N[C@@H](Cc2ccccc2)C(=O)N[C@H](C(=O)Cc2ccccc2)C(C)C)c1`: 14 µM; `CCOC(=O)/C=C/[C@@H](NC(=O)[C@H](Cc1ccccc1)NC(=O)[C@@H]1CCCCN1CC(=O)c1cccc(OC)c1)C(C)C`: 15 µM. Take `COC(=O)[C@H](Cc1ccccc1)NC(=O)[C@@H](NC(=O)[C@H](Cc1ccccc1)NC(=O)[C@@H]1CCCCN1CC(=O)c1ccc(-c2ccccc2)cc1)C(C)C`: the 50% inhibitory concentration (IC50) is 26 µM.

With `COC(=O)[C@H](Cc1ccccc1)NC(=O)[C@@H](NC(=O)[C@H](Cc1ccccc1)NC(=O)[C@@H]1CCCCN1CC(=O)c1cccc(OC)c1)C(C)C`, the IC50 was found to be 1 µM.

As to `COc1cccc(C(=O)CN2CCCC[C@H]2C(=O)N[C@H](C(=O)OC(C)(C)C)C(C)C)c1`, the IC50 stood at 83 µM. The compound `COC(=O)[C@H](Cc1ccccc1)NC(=O)[C@@H](NC(=O)[C@H](Cc1ccccc1)NC(=O)[C@@H]1CCCCN1C(=O)OCc1ccccc1)C(C)C` (Cbz-[Pip]FVF-OMe) registered an IC50 of more than 100 µM. As for `COC(=O)[C@H](Cc1ccccc1)NC(=O)[C@@H](NC(=O)[C@H](Cc1ccccc1)NC(=O)[C@@H]1CCCCN1)C(C)C` (H-[Pip]FVF-OMe), the IC50 was more than 100 µM.
